Test results reported in US20190388441A1, “NOVEL PRODRUGS OF MIZORIBINE” (KATHOLIEKE UNIVERSITEIT LEUVEN, priority 2017, published 2019).
Like-named read-outs stand apart in the source and are kept apart here.

Key:
[1] = test system: heart grafts from Balb/c donors in C57BL/6 recipient mice; assay: heart allograft survival in mice (heterotopic heart transplantation); assay type: in vivo
Protocol: Synergy of Mizoribine Prodrugs with FK506 to Prolong Heart Allograft Survival in Mice
Heterotopic hear transplantation was performed by placing heart grafts from Balb/c donors to the neck of C57BL/6 recipient mice using micro-suture technology, in which the aorta and pulmonary artery of the graft were connected to carotid artery and jugular vein, respectively. The function of grafts was monitored by daily inspection and palpation. Rejection was determined by cessation of graft beating and confirmed by histology.

IL-2 production = assay: suppression of IL-2 production in anti-CD3 antibody stimulated mice in vivo; set-up: species or system Balb/c mice; conditions: Mus musculus; for inhibition at 55 mg/kg: 55 mpk PO; for inhibition at 25 mg/kg: 25 mpk PO; for inhibition at 40 mg/kg: 40 mpk PO; for inhibition at 50 mg/kg: 50 mpk PO; for inhibition at 65 mg/kg: 65 mpk PO
Protocol: Mizoribine prodrug-induced suppression of IL-2 production in anti-CD3 antibody stimulated mice in vivo.
Inbreed Balb/c mice, male, 8-10 week old, were pre-treated with Mycophenolate mofetil (MMF), Mizoribine and Mizoribine prodrugs at the different time intervals before anti-mouse CD3 antibody injection IP (1 μg per mouse). The doses of the prodrugs of examples 19, 40 and 48 were equal to Mizoribine on the bases of molecular weight. Four hours after anti-CD3 antibody stimulation, a volume of 100 μl peripheral blood was taken by eye puncture and serum IL-2 was quantified by FACS-beads technology. Briefly, an aliquot of 10 μl of serum was incubated with anti-mouse IL-2 antibody coated microbeads at 4° C. for 30 min. After washing twice with cold PBS, the beads were incubated with biotin-conjugated anti-mouse IL-2 antibody at 4° C. for 30 min. After washing twice with cold PBS, The beads were incubated with PE-conjugated avidin at 4° C. for 30 min. After washing twice with cold PBS, the samples were analyzed by flow cytometry. Results were expressed as mean of 2 mice in each group.

DBA-1 mice with CIA = assay: chicken collagen type II induced rheumatoid arthritis (CIA) in DBA-1 mice; assay type: in vivo; conditions: monotherapy at given doses, 30 day-treatment
Source text: Results of example 67 showing disease score in DBA-1 mice with CIA after a 30 day-treatment with the Mizoribine prodrug of example 19 alone and in combination with MMF or Mizoribine.
Example 67: Synergy of the Prodrug of Example 19 with MMF or Mizoribine in Treatment of DBA-1 Mice with Chicken Collagen Type II Induced Rheumatoid Arthritis (CIA)

Balb/c mice = assay: subacute toxicity assay; assay type: in vivo; conditions: Day 0-14, n = 6
Protocol: Reduction of Toxicity by Combination of Ex19 and MZR Subacute Toxicity Assay
Balb/c mice were treated with MZR at 100 mpk PO or Ex19 at equal molecule dose to MZR from day 0-14.

hlMPDH1 = hlMPDH1 (Homo sapiens, UniProt P20839); conditions: upper end of the range; cited from earlier work
hlMPDH1, sequence (P20839 whole entry): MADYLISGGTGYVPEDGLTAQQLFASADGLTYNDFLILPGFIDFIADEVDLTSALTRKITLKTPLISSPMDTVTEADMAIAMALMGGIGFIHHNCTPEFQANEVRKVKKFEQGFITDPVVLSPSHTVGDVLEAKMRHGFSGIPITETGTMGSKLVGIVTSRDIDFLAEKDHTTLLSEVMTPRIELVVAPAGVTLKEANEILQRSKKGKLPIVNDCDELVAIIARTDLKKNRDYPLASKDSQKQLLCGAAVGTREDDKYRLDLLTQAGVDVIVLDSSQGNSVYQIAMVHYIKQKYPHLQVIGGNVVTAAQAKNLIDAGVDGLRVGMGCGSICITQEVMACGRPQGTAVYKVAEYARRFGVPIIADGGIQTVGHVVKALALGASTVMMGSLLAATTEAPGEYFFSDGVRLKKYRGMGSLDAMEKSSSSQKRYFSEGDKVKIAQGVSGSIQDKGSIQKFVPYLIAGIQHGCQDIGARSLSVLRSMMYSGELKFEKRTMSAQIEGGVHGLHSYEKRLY

IMPDH (E. coli) = IMPDH (E. coli) (Escherichia coli, UniProt P0ADG7); conditions: lower end of the range; cited from earlier work
IMPDH (E. coli), sequence (P0ADG7 whole entry): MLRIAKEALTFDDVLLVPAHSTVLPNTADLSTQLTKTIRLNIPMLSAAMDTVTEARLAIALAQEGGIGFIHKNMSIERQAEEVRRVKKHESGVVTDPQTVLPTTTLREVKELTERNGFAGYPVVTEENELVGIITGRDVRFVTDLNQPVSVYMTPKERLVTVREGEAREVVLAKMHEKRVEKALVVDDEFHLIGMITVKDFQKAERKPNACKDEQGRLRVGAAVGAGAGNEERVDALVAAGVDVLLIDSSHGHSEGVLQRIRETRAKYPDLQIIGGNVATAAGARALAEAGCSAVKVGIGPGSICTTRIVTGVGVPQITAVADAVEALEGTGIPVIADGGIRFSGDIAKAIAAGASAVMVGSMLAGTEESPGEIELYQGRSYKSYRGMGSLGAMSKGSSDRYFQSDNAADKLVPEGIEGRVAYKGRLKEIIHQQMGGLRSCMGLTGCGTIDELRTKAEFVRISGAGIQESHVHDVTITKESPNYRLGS

[2] = given 1 hour before anti-CD3, mean of 2 mice, read-out: % inhibition of IL-2, 1 hour post administration
[3] = given 4 hours before anti-CD3, mean of 2 mice, read-out: % inhibition of IL-2, 4 hour post administration
[4] = given 8 hours before anti-CD3, mean of 2 mice, read-out: % inhibition of IL-2, 8 hour post administration
[5] = 1 to 8 hours post administration, read-out: inhibition of IL-2, range up to 8 hours post administration

Compound: NC(=O)c1ncn(C2OC(COC(=O)[C@@H](N)CC(=O)OCc3ccccc3)C(O)C2O)c1O (stereo partly drawn) [Ex 48, Mizoribine-5′-(4-benzyl ester-L-aspartyl) ester]
- MST (median survival time) ± SD ([1]; 112 mpk PO, d 0 to d 14 post transplantation): 11 ± 1.0 days
- MST (median survival time) ± SD ([1]; 112 mpk PO, d 0 to d 14 post transplantation, listed as example 48): 11 ± 1.0 days
- inhibition at 55 mg/kg (IL-2 production; [2]): 77%
- inhibition at 55 mg/kg (IL-2 production; [3]): 32.7%
- inhibition at 55 mg/kg (IL-2 production; [4]): 27.7%
- inhibition at 55 mg/kg (IL-2 production; [5]): 27.7 to 77%

Compound: C=CC[C@@H]1/C=C(\C)C[C@H](C)C[C@H](OC)[C@H]2O[C@@](O)(C(=O)C(=O)N3CCCC[C@H]3C(=O)O[C@H](/C(C)=C/[C@@H]3CC[C@@H](O)[C@H](OC)C3)[C@H](C)[C@@H](O)CC1=O)[C@H](C)C[C@@H]2OC [FK506, tacrolimus]
- MST (median survival time) ± SD ([1]; FK506 4 mpk IM, d 0 to d 14 post transplantation, 4 mg/kg): 8 ± 1.3 days

Compound: NC(=O)c1ncn([C@@H]2O[C@H](CO)[C@@H](O)[C@H]2O)c1O [Mizoribine]
- MST (median survival time) ± SD ([1]; MZR 50 mpk PO, d 0 to d 14): 8 ± 1.2 days
- MST (median survival time) ± SD ([1]; MZR 50 mpk PO, d 0 to d 14, listed as MZR): 8 ± 1.2 days
- suppression of disease score (DBA-1 mice with CIA): didn't show notable suppression of disease score
- inhibition at 25 mg/kg (IL-2 production; [2]): 55.6%
- inhibition at 25 mg/kg (IL-2 production; [3]): -8.6%
- inhibition at 25 mg/kg (IL-2 production; [4]): -7.3%

Compound: CC(C)(C)C(=O)NC(=O)c1ncn([C@@H]2O[C@H](COC(=O)C(C)(C)C)C(O)[C@H]2O)c1O (stereo partly drawn) [Ex 40, Mizoribine-5′-N-dipivalate]
- MST (median survival time) ± SD ([1]; 83 mpk PO, d 0 to d 14 post transplantation): 11 ± 0.6 days
- MST (median survival time) ± SD ([1]; 83 mpk PO, d 0 to d 14 post transplantation, listed as Example 40): 11 ± 0.6 days
- MST (median survival time) ± SD ([1]; 83 mpk PO, d 0 to d 14 post transplantation, listed as example 40): 11 ± 0.6 days
- inhibition at 40 mg/kg (IL-2 production; [2]): 19.4%
- inhibition at 40 mg/kg (IL-2 production; [3]): 64.4%
- inhibition at 40 mg/kg (IL-2 production; [4]): 61.3%

Compound: COc1c(C)c2c(c(O)c1C/C=C(\C)CCC(=O)OCCN1CCOCC1)C(=O)OC2 [MMF, Mycophenolate mofetil, reference compound]
- MST (median survival time) ± SD ([1]; MMF 100 mpk PO, d 0 to d 14): 11 ± 1.2 days
- suppression of disease score (DBA-1 mice with CIA): didn't show notable suppression of disease score
- inhibition at 50 mg/kg (IL-2 production; given 1 hour before anti-CD3, serum IL-2 4 h after stimulation, mean of 2 mice, read-out: % inhibition of IL-2, 1 hour post administration): 81.7%
- inhibition at 50 mg/kg (IL-2 production; [3]): 52.3%
- inhibition at 50 mg/kg (IL-2 production; [4]): 3.4%

Compound: CC(C)CCOC(=O)C[C@H](NP(=O)(OC[C@H]1O[C@@H](n2cnc(C(N)=O)c2O)[C@H](O)C1O)Oc1ccccc1)C(=O)OCCC(C)C (stereo partly drawn) [Ex 19, Mizoribine-5′-[phenyl-bis(isoamyl-L-aspartyl)]phosphate]
- n° sick animals (Balb/c mice; Ex19 260 mg/kg PO (equal molecule dose to MZR)): 3
- % sickness (Balb/c mice; Ex19 260 mg/kg PO): 50%
- suppression of disease score (DBA-1 mice with CIA): didn't show notable suppression of disease score
- inhibition at 65 mg/kg (IL-2 production; [2]): 14.7%
- inhibition at 65 mg/kg (IL-2 production; [3]): 18.3%
- inhibition at 65 mg/kg (IL-2 production; [4]): 17.5%
- inhibition at 65 mg/kg (IL-2 production; [5]): 14 to 18%

Compound: NC(=O)c1ncn([C@@H]2O[C@H](COP(=O)(O)O)[C@@H](O)[C@H]2O)c1O [mizoribine-5′-monophosphate]
- Ki (hlMPDH1): 8 nM
- Ki (IMPDH (E. coli)): 0.5 nM
